Experimental data published in US20250114338A1, “TETRAHYDRO-PYRIDO[3,4-b]INDOLE ESTROGEN RECEPTOR MODULATORS AND USES THEREOF” (Genentech, Inc., priority 2014, published 2025).
pEC50: −log10 of the molar value.

Tested on: ER-alpha MCF7
Experiment: ER-alpha MCF7 HCS EC50; stated as measured by in vitro cell proliferation assays of Examples 902 and 903
Format: cell-based
Details: Homo sapiens, MCF7, MCF7 cells; Table 2
In short: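 MCF7 cells seeded 1000-2000 cells/well for 16 h, then treated with nine-point 1:2 DMSO dilution series in quadruplicate at 37 °C, 5% CO2 for 4 days. Viable cells quantified by CellTiter-Glo ATP luminescence; EC50 calculated. Controls: fulvestrant at final 100 nM, DMSO 0.2% v/v.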

Structure (SMILES)	pEC50
C[C@@H]1Cc2c([nH]c3ccccc23)[C@@H](c2c(F)cc(OC3CN(CC4CC(F)(F)C4)C3)cc2F)N1CC(C)(C)F [Example 259, (1R,3R)-1-[4-[1-[(3,3-difluorocyclobutyl)methyl]azetidin-3-yl]oxy-2,6-difluoro-phenyl]-2-(2-fluoro-2-methyl-propyl)-3-methyl-1,3,4,9-tetrahydropyrido[3,4-b]indole]	9.35
C[C@@H]1Cc2c([nH]c3c(F)cccc23)[C@@H](c2c(F)cc(OCCN3CC(CF)C3)cc2F)N1CC(C)(C)F [Example 260, (1R,3R)-1-(2,6-difluoro-4-(2-(3-(fluoromethyl)azetidin-1-yl)ethoxy)phenyl)-8-fluoro-2-(2-fluoro-2-methylpropyl)-3-methyl-2,3,4,9-tetrahydro-1H-pyrido[3,4-b]indole]	9.06
C[C@@H]1Cc2c([nH]c3c(F)cccc23)[C@@H](c2c(F)cc(OC3CN(CCCF)C3)cc2F)N1CC(C)(C)F [Example 261, (1R,3R)-1-(2,6-difluoro-4-((1-(3-fluoropropyl)azetidin-3-yl)oxy)phenyl)-8-fluoro-2-(2-fluoro-2-methylpropyl)-3-methyl-2,3,4,9-tetrahydro-1H-pyrido[3,4-b]indole]	9.55
C[C@H]1Cc2c([nH]c3c(F)cccc23)[C@H](c2c(F)cc(OCCN3CC(CF)C3)cc2F)N1CC(C)(C)F [Example 262, (1S,3S)-1-(2,6-difluoro-4-(2-(3-(fluoromethyl)azetidin-1-yl)ethoxy)phenyl)-8-fluoro-2-(2-fluoro-2-methylpropyl)-3-methyl-2,3,4,9-tetrahydro-1H-pyrido[3,4-b]indole]	7.59
C[C@H](O)CN1[C@H](c2c(F)cc(OC3CN(CCCF)C3)cc2F)c2[nH]c3ccccc3c2C[C@H]1C [Example 263, (S)-1-((1R,3R)-1-(2,6-difluoro-4-((1-(3-fluoropropyl)azetidin-3-yl)oxy)phenyl)-3-methyl-1,3,4,9-tetrahydro-2H-pyrido[3,4-b]indol-2-yl)propan-2-ol]	9.44
C[C@@H]1Cc2c([nH]c3ccccc23)[C@@H](c2c(F)cc(OC3CN(CCCF)C3)cc2F)N1C[C@@H](C)O [Example 264, (R)-1-((1R,3R)-1-(2,6-difluoro-4-((1-(3-fluoropropyl)azetidin-3-yl)oxy)phenyl)-3-methyl-1,3,4,9-tetrahydro-2H-pyrido[3,4-b]indol-2-yl)propan-2-ol]	9.01
C[C@@H]1Cc2c([nH]c3ccccc23)[C@@H](c2c(F)cc(OCCN3CC(CCl)C3)cc2F)N1CC(C)(C)F [Example 265, (1R,3R)-1-[4-[2-[3-(chloromethyl)azetidin-1-yl]ethoxy]-2,6-difluoro-phenyl]-2-(2-fluoro-2-methyl-propyl)-3-methyl-1,3,4,9-tetrahydropyrido[3,4-b]indole]	8.77
C[C@@H]1Cc2c([nH]c3ccccc23)[C@@H](c2ccc(OC3CN(CCCF)C3)c(Cl)c2)N1CC(C)(C)F [Example 266, (1R,3R)-1-[3-chloro-4-[1-(3-fluoropropyl)azetidin-3-yl]oxy-phenyl]-2-(2-fluoro-2-methyl-propyl)-3-methyl-1,3,4,9-tetrahydropyrido[3,4-b]indole]	8.00
C[C@@H]1Cc2c([nH]c3ccccc23)[C@@H](c2ccc(OC3CN(CCCF)C3)c(F)c2)N1CC(C)(C)F [Example 267, (1R,3R)-1-[3-fluoro-4-[1-(3-fluoropropyl)azetidin-3-yl]oxy-phenyl]-2-(2-fluoro-2-methyl-propyl)-3-methyl-1,3,4,9-tetrahydropyrido[3,4-b]indole]	9.13
C[C@@H]1Cc2c([nH]c3ccccc23)[C@@H](c2c(F)cc(OCCN3CC(CF)C3)cc2F)N1C[C@@H](O)CO [Example 268, (2R)-3-[(1R,3R)-1-[2,6-difluoro-4-[2-[3-(fluoromethyl)azetidin-1-yl]ethoxy]phenyl]-3-methyl-1,3,4,9-tetrahydropyrido[3,4-b]indol-2-yl]propane-1,2-diol]	8.10
C[C@@H]1Cc2c([nH]c3ccccc23)[C@@H](c2c(F)cc(OC3CN(C[C@@H]4C[C@H]4F)C3)cc2F)N1CC(C)(C)F [Example 269, (1R,3R)-1-[2,6-difluoro-4-[1-[[(1S,2R)-2-fluorocyclopropyl]methyl]azetidin-3-yl]oxy-phenyl]-2-(2-fluoro-2-methyl-propyl)-3-methyl-1,3,4,9-tetrahydropyrido[3,4-b]indole]	9.00
C[C@H](CF)CN1[C@H](c2c(F)cc(OCCN3CC(CF)C3)cc2F)c2[nH]c3ccccc3c2C[C@H]1C [Example 270, (1R,3R)-1-(2,6-difluoro-4-(2-(3-(fluoromethyl)azetidin-1-yl)ethoxy)phenyl)-2-((S)-3-fluoro-2-methylpropyl)-3-methyl-2,3,4,9-tetrahydro-1H-pyrido[3,4-b]indole]	9.34
C[C@@H]1Cc2c([nH]c3ccccc23)[C@@H](c2c(F)cc(OCCN3CC(CF)C3)cc2F)N1C[C@](C)(O)CO [Example 271, (S)-3-((1R,3R)-1-(2,6-difluoro-4-(2-(3-(fluoromethyl)azetidin-1-yl)ethoxy)phenyl)-3-methyl-1,3,4,9-tetrahydro-2H-pyrido[3,4-b]indol-2-yl)-2-methylpropane-1,2-diol]	8.30
C[C@@H]1Cc2c([nH]c3ccccc23)[C@@H](c2c(F)cc(OC3CN(CCCF)C3)cc2F)N1CC(C)(C)CF [Example 272, (1R,3R)-1-[2,6-difluoro-4-[1-(3-fluoropropyl)azetidin-3-yl]oxy-phenyl]-2-(3-fluoro-2,2-dimethyl-propyl)-3-methyl-1,3,4,9-tetrahydropyrido[3,4-b]indole]	9.16
C[C@@H]1Cc2c([nH]c3ccccc23)[C@@H](c2ccc(OCCN3CC(CF)C3)cc2F)N1C[C@@](C)(F)CO [Example 273, (R)-2-fluoro-3-((1R,3R)-1-(2-fluoro-4-(2-(3-(fluoromethyl)azetidin-1-yl)ethoxy)phenyl)-3-methyl-1,3,4,9-tetrahydro-2H-pyrido[3,4-b]indol-2-yl)-2-methylpropan-1-ol]	9.55
C[C@@H]1Cc2c([nH]c3ccccc23)[C@@H](c2ccc(OCCN3CC(CF)C3)cc2F)N1C[C@](C)(F)CO [Example 274, (S)-2-fluoro-3-((1R,3R)-1-(2-fluoro-4-(2-(3-(fluoromethyl)azetidin-1-yl)ethoxy)phenyl)-3-methyl-1,3,4,9-tetrahydro-2H-pyrido[3,4-b]indol-2-yl)-2-methylpropan-1-ol]	9.60
C[C@@H]1Cc2c([nH]c3ccccc23)[C@@H](c2ccc(OCCN3CC(CF)C3)cc2)N1C[C@@](C)(F)CO [Example 275, (R)-2-fluoro-3-((1R,3R)-1-(4-(2-(3-(fluoromethyl)azetidin-1-yl)ethoxy)phenyl)-3-methyl-1,3,4,9-tetrahydro-2H-pyrido[3,4-b]indol-2-yl)-2-methylpropan-1-ol]	9.78
C[C@@H]1Cc2c([nH]c3ccccc23)[C@@H](c2ccc(OCCN3CC(CF)C3)cc2)N1C[C@](C)(F)CO [Example 276, (S)-2-fluoro-3-((1R,3R)-1-(4-(2-(3-(fluoromethyl)azetidin-1-yl)ethoxy)phenyl)-3-methyl-1,3,4,9-tetrahydro-2H-pyrido[3,4-b]indol-2-yl)-2-methylpropan-1-ol]	9.51
